The values below come from PubChem BioAssay (NCI).

“And” between values parts separate entries of the source, which are not always exact repeats. Equal values may be shown once.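 A five-concentration, 48-hour dose response in 96-well plates underlies each endpoint, interpolated linearly between surrounding concentrations. GI50 = concentration required for 50% inhibition of growth. TGI is the concentration that stops growth completely.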 Where a SMILES comes first, the peptide text is derived from it. Bridges are numbered along the chain shown (N, C = ends). [ ]: non-standard residue; d: D form. The star is where a group is joined. ξ: configuration not given here. ξDab(CH2SO3H) = NC(CCNCS(=O)(=O)O)C(=O)O; Heptanoyl(6-Me) = CC(C)CCCCC(=O)*; Dab = NCC[CH](N)C(=O)O

Holding throughout (assay): NCI-60 cell line screen, 48 h
Test [1] has as its system NCI-H522 lung.
Test [2] concerns BT-549 breast.
For test [3], the system named is SF-295 CNS.
Test [4] has as its system SK-OV-3 ovarian.
The subject of test [5] is RPMI-8226 leukemia.
The test system of test [6] is SR leukemia.
The test system of test [7] is CAKI-1 renal.
Test [8] has as its system HOP-92 NSCLC.
Test [9] relates to EKVX NSCLC.
The test system of test [10] is OVCAR-3 ovarian.

On to `[Cl][Hg][c]1ccc(Cl)s1`, for which the GI50 in [1] was 0.114 µM; in test [2], 2.11 µM; in test [3], 11.5 µM; in test [4] it was 13.6 µM; in test [5], 2.23 µM; in [6], 0.319 µM. Besides, the GI50 in test [7] was 1.69 µM; in [8] it was 1.67 µM; in test [9], 5.72 µM. For the same molecule, the TGI in test [1] was 0.325 µM; in test [2], 5.21 µM; in test [3], 25.7 µM; in test [4], 26.8 µM; in test [5], 6.58 µM; in test [7], 3.29 µM. Besides, the TGI in [8] is 3.11 µM; in test [9] it was 20.2 µM.

Consider `CCC(C)C1NC(=O)C(CCNCS(=O)(=O)O)NC(=O)C(NC(=O)C(CCNCS(=O)(=O)O)NC(=O)C(NC(=O)C(CCNCS(=O)(=O)O)NC(=O)CCCCC(C)C)C(C)O)CCNC(=O)C(C(C)O)NC(=O)C(CCNCS(=O)(=O)O)NC(=O)C(CCNCS(=O)(=O)O)NC(=O)C(C(C)CC)NC1=O` (stereo unspecified) ({Heptanoyl(6-Me)}-[ξDab(CH2SO3H)]T[ξDab(CH2SO3H)][Dab][ξDab(CH2SO3H)]II[ξDab(CH2SO3H)][ξDab(CH2SO3H)]T; lactam 4-C; configuration not given here), for which the GI50 was 2.88 µM in [10]; 3.84 µM in [1]; 6.27 µM in test [2]; 6.66 µM in [3]; 8.13 µM in test [4]; 1.32 µM in [6]. For the same molecule, the GI50 in test [7] and in test [9] was over 25 µM each time. For the same molecule, the TGI in test [10] is 8.06 µM; in [1], 14.1 µM; in test [2], over 25 µM; in test [3] it was over 25 µM; in test [4] it was over 25 µM; in [6], over 25 µM. Besides, the TGI in test [7] and in [9] was over 25 µM in each case.

As for `CC(C)(C)[Si](C)(C)OC1[C@@H](O[Si](C)(C)C(C)(C)C)[C@@H](CNC(=O)NC(=O)CF)O[C@H]1n1cnc2c(NC(=O)Nc3ccccc3)ncnc21` (stereo partly specified), the GI50 in test [10] is 11.1 µM; in [1] it was over 50 µM; in test [2], 12.2 µM; in test [4], over 50 µM; in [5] it was 14 µM; in test [6], 4.5 µM. For the same molecule, the GI50 is 27.3 µM in [7] and 6.48 µM in test [8]. In addition, the TGI in [10] is 23.4 µM; in [1] it was over 50 µM; in test [2], 42.5 µM; in test [4], over 50 µM; in test [5], over 50 µM; in [6] it was 32 µM. The figures for the TGI in [7] and in test [8] were over 50 µM and 19.8 µM, respectively.

`C[C@]12CC[C@@H]3c4cc(O)c(O)cc4CC[C@H]3[C@@H]1CC[C@@H]2O`: the GI50 in test [10] was 2.77 µM; in [1] it was 0.987 µM; in test [2], 1.78 µM; in test [3], 7.19 µM; in [4], 4.19 µM; in test [5] it was 3.99 µM. Also, the GI50 in [6] is 0.576 µM; in test [7], 3.83 µM; in [8] it was 3.32 µM. Also, the TGI in test [10] is over 31.3 µM; in test [1], 3.83 µM; in [2], 42.3 µM; in test [3], 32.9 µM; in test [4], 61.8 µM; in test [5] it was 30.3 µM. The TGI in test [6] was 48.5 µM; in [7], over 88.9 µM; in test [8], 29 µM.

Consider `O=C(/C(=C/c1ccc([N+](=O)[O-])cc1)SCc1ccc(Cl)cc1)c1ccc(F)cc1`, for which the GI50 in [10] was 2.2 µM; in [1], 1.84 µM; in test [2] it was 2.06 µM; in test [3], 4.02 µM; in test [4] it was 16.6 µM; in test [5] it was 0.81 µM. The GI50 in test [6] is 2.01 µM; in test [8], 10.2 µM; in [9], 3.78 µM. Further, the TGI is 5.13 µM in test [10]; 3.76 µM in test [1]; 4.56 µM in test [2]; 14.4 µM in test [3]; 63.5 µM in [4]; 4 µM in [5]. The TGI in [6] is over 26.5 µM; in [8], 34 µM; in [9] it was 15.2 µM.

For the molecule `Cn1cc(C2=C(c3c4n(c5ccccc35)CCC(CN)C4)C(=O)NC2=O)c2ccccc21` (stereo unspecified), the GI50 in test [10] is 3.58 µM; in [1], 3.84 µM; in test [2], 4.06 µM; in test [3], 2.31 µM; in [4], 4.11 µM; in test [5], 3.93 µM. The GI50 in test [6] was 2.17 µM; in test [7] it was 3.91 µM; in [8] it was 5.25 µM. In addition, the TGI was 7.63 µM in test [10]; 7.46 µM in [1]; 7.75 µM in [2]; 6.09 µM in test [3]; 9.16 µM in [4]; 9.61 µM in [5]. Besides, the TGI in test [6] is 7.81 µM; in test [7], 8.75 µM; in [8] it was 12.3 µM.

For `CONC(C)=O`, the TGI in [10], in test [1], in test [2], in test [3], in test [4] and in test [5] was over 100 µM each time. For the same molecule, the TGI in test [6], in [7] and in test [9] was over 100 µM each time.

Take `Cc1cc(Nc2ncc3c(n2)N(C)C(=O)N(c2cc(NC(=O)c4cccc(C(F)(F)F)c4)ccc2C)C3)n(C)n1`: the GI50 in [2] was 0.0628 µM; in test [3], 0.364 µM; in test [4] it was 0.022 µM; in test [5], 0.641 µM; in [6], 0.0264 µM; in [7], 0.0182 µM. Further, the TGI in [2] is 0.321 µM; in test [3], over 100 µM; in test [4], 0.0701 µM; in test [5] it was 18.6 µM; in test [6], 1.21 µM; in test [7], 0.0709 µM.

Turning to `N#Cc1c(N)n2c(nc1=Nc1ccc(Cl)cc1)sc1cc(Cl)ccc12`, the GI50 in test [10] is 6.11 µM; in [1] it was 3.74 µM; in test [2] it was 24.8 µM; in [3], 4.12 µM and 3.04 µM; in test [4], 7.14 µM and 5.3 µM; in test [5], 1.26 µM. Further, the GI50 in test [6] is 2.26 µM; in [7], 22.4 µM; in [9] it was 10.2 µM. Further, the TGI in test [10] was over 100 µM; in test [2] it was over 100 µM; in test [3] it was 42.9 µM; in [4] it was over 100 µM; in [5], 9.27 µM; in test [6] it was over 100 µM. In addition, the TGI in test [7] and in test [9] was over 100 µM throughout.
